Article PMC7580834, “Inhibition mechanism of naphthylphenylamine derivatives acting on the CDC25B dual phosphatase and analysis of the molecular processes involved in the high cytotoxicity exerted by one selected derivative in melanoma cells” (Journal of Enzyme Inhibition and Medicinal Chemistry, 2020)
Read-outs that look alike come from different tables or passages of the source. Residues, ends and D or L forms follow the SMILES beside them. *: point of attachment. Cbz = O=C(OCc1ccccc1)*; CH2F = FC*

Assays:
[1] = biological target: T1, CDC25B (Homo sapiens, UniProt P30305); test: Intrinsic fluorescence quenching of recombinant CDC25B catalytic domain (Stern-Volmer); type: binding; conditions: for KSV (Stern-Volmer constant): 0.2 µM wild-type CDC25B, emission 357 nm, 20 °C, no OMFP; for K′D/Ki ratio: K′D of free CDC25B•inhibitor over Ki; for Kd: reciprocal of KSV, inhibitor concentration leading to 50% quenching of CDC25B emission, read-out: K′D of the complex, Free CDC25B•inhibitor
T1 sequence (P30305 377-551 isoform P30305-2 limits assumed): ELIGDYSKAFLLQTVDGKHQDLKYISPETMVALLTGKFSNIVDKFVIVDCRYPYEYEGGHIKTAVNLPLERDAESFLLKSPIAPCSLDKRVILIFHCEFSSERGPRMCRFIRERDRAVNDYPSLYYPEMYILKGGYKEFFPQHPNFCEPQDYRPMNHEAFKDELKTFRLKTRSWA
Protocol: (§1) Fluorescence spectra were recorded at 20 °C using a computer-assisted Cary Eclipse spectrofluorimeter (Varian, Palo Alto, CA, USA) equipped with an electronic temperature controller. The excitation wavelength was set at 280 nm and the excitation and emission slits were set at 10 and 20 nm, respectively. A 500 µL final volume of a 0.2 µM solution of CDC25B or CDC25B-C473S dissolved in 20 mM Tris•HCl, pH 7.8, 0.5 mM TCEP was directly prepared in the fluorimetric cuvette in the absence or in the presence of OMFP and/or some NPA derivatives. Serial pre-dilutions of the NPA derivatives or OMFP at increasing concentration were prepared in DMSO or methanol, respectively. Alongside, a convenient amount of the enzyme pre-dilution was prepared just before its usage for the experiment and stored on ice. When the combined effect of NPA derivative and OMFP was investigated, two enzyme pre-dilutions were prepared in the absence or in the presence of 5 µM OMFP. In order to evaluate the specific effect produced by any addition of solvent/ligand on the intrinsic fluorescence of the enzyme, 495 µL of the enzyme pre-dilution were placed in the fluorimetric cuvette and the relative spectrum was recorded; after the addition of 5 µL of each pre-dilution of solvent/ligand and fast mixing, the spectrum was recorded again. This procedure, repeated for each experimental point, allowed a normalisation of the specific effects produced by solvent/ligands. Furthermore, a correction was also applied for the little inner-filter effect due to the absorbance at 280 nm of the NPA derivative used at different concentrations; on the other hand, no correction was necessary for OMFP. All spectra, recorded at a scan speed of 120 nm/min, were normalised and corrected.

[2] = biological target: T2, CDC25B (Homo sapiens, UniProt P30305); test: Kinetic studies of CDC25B phosphatase inhibition (OMFP substrate); type: biochemical; conditions: putative from Lineweaver-Burk plots (ref 18), confirmed by the fluorescence studies of this work
T2 sequence (P30305 1-580): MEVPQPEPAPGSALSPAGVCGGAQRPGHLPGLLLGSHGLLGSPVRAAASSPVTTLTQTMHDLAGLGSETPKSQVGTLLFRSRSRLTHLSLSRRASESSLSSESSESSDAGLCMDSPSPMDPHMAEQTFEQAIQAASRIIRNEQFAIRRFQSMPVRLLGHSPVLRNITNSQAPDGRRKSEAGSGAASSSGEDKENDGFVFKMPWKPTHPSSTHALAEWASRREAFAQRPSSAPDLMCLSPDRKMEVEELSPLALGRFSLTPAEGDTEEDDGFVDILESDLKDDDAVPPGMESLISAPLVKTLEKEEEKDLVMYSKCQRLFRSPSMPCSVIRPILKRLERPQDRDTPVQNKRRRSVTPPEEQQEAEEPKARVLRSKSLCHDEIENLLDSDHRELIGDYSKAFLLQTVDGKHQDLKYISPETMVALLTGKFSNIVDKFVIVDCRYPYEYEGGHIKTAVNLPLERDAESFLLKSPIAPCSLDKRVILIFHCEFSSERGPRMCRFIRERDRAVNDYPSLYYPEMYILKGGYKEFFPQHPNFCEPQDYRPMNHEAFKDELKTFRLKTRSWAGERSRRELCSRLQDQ

[3] = biological target: T3, OMFP-bound CDC25B-C473S (Homo sapiens, UniProt P30305, C487S); test: Intrinsic fluorescence quenching of CDC25B-C473S in the presence of 5 µM OMFP (Stern-Volmer); type: binding; conditions: reciprocal of KSV; presence of 5 µM OMFP; read-out: K′D of the complex, OMFP-bound CDC25B-C473S•inhibitor
T3 sequence (P30305 370-580 C487S): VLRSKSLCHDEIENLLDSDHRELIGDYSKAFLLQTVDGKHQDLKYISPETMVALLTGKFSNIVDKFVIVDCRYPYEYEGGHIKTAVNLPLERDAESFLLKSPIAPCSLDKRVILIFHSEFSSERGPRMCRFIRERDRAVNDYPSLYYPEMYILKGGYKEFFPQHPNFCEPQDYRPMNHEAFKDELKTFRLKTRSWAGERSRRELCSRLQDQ
Source text: (§2) The mutant form of CDC25B, carrying the C473S replacement (CDC25B-C473S), was obtained through site-directed mutagenesis of the CDC25B catalytic segment cloned in pET28a-CDC25B-cd. To this aim, the QuikChange site-directed mutagenesis kit (Stratagene, La Jolla, CA, USA) and the forward and reverse primers for C473S replacement (5′d-[…]-3′ and 5′d-[…]-3′) were used. Positive clones were obtained, and the nucleotide sequencing of the mutagenised segment excluded the presence of undesired mutations. The new vector was called pET28a-CDC25B-C473S-cd. The expression of the new vector and the purification of the recombinant form of CDC25B-C473S catalytic domain were carried out as previously reported for wild-type CDC25B catalytic domain[18], and similar yields were obtained. As expected, the mutant enzyme was unable to hydrolyse the synthetic substrate OMFP, when its activity was checked with the fluorimetric assay method previously described.
as §1

[4] = biological target: T2, CDC25B; conditions: cited from earlier work
[5] = tested on: some tumour cells; design: method as in PMID 22524450; conditions: 200 µM; cited from earlier work
[6] = tested on: A2058 cells; test: Apoptosis by cytofluorimetry after PI incorporation (subdiploid DNA content); type: cell-based, human; conditions: 100 µM Z-VAD-FMK plus 10 µM 4a, 48 h
Protocol: (§3) The human melanoma cell lines A375 and A2058, deriving from a primary tumour or lymph nodal metastasis, respectively, were kindly provided from CEINGE (Naples, Italy). Cells were grown in DMEM supplemented with 10% FBS, 2 mM L-glutamine, 100 IU/mL penicillin G and 100 µg/mL streptomycin in humidified incubator at 37 °C under 5% CO2 atmosphere. The cell line BJ-5ta, a human skin fibroblast immortalised with the human telomerase reverse transcriptase[30] was cultured in a 4:1 mixture of DMEM and Medium 199 supplemented with 4 mM L-glutamine, 4.5 g/L glucose, 1.5 g/L sodium bicarbonate, 10% FBS, 100 IU/mL penicillin G, […] streptomycin in humidified incubator at 37 °C under 5% CO2 atmosphere. All cells were split and seeded every 3 days and used during their exponential phase of growth. Cell treatments were usually carried out after 24 h from plating.
(§4) Cytofluorimetric analysis was used to determine the number of apoptotic nuclei essentially as previously described. Briefly, cells were seeded into six-well plates at 3 × 10^5 cells/well and after 24 h were treated with 4a or 0.5% (v/v) DMSO and incubated for different times. Then, cells were harvested with trypsin, and centrifuged, and the pellets were resuspended in 200 µL of a hypotonic lysis solution containing 50 µg/mL PI. After incubation at 4 °C for 30 min, cells were analysed with a FACScan flow cytometer (Becton Dickinson, Franklin Lakes, NJ, USA) to evaluate the presence of nuclei with DNA content lower than diploid.

[7] = tested on: A375 cells; test: as above; type: cell-based, human; conditions: 100 µM Z-VAD-FMK plus 10 µM 4a, 48 h
Protocol: as §3, §4

[8] = tested on: OMFP-bound CDC25B-C473S; test: Intrinsic fluorescence quenching of CDC25B-C473S in the presence of 5 µM OMFP (Stern-Volmer); type: binding; conditions: for KSV (Stern-Volmer constant): 0.2 µM CDC25B-C473S, in the presence of 5 µM OMFP; for K′D/Ki ratio: K′D of OMFP-bound CDC25B-C473S•inhibitor over Ki
Source text: as §2, §1

Row | KSV (Stern-Volmer constant) [1] [µM⁻¹] | K′D/Ki ratio [1] | Kd [1] [µM] | Inhibition mechanism [2] | Kd [3] [µM] | SMILES | other results
1 | 0.035 | 10.6 | 28.6 | noncompetitive | – | O=C(O)c1ccccc1Nc1ccc(O)c2ccccc12 [6e] | –
2 | 0.069 | 10.4 | 14.5 | noncompetitive | – | Nc1ccc(Nc2cccc(C(=O)O)c2)c2ccccc12 [7i] | –
3 | 0.129 | 9.7 | 7.8 | noncompetitive | 15.1 | Nc1cccc2c(Nc3cccc(C(=O)O)c3)cccc12 [7j] | –
4 | – | – | – | – | – | O=C(O)c1ccc(C(=O)c2ccccc2C(=O)O)cc1C(=O)O [NSC28620] | Inhibition mechanism ([4]; lead compound): reversible competitive; cell growth rate of some tumour cells [5]: reduced
5 | – | – | – | – | – | COc1ccc2c(c1)Oc1cc(OP(=O)(O)O)ccc1C21OC(=O)c2ccccc21 (stereo not drawn) [OMFP, O-methylfluorescein phosphate] | Km ([4]; read-out: KM of the wild type CDC25B for the substrate): 2.7 ± 0.2 µM
6 | – | – | – | – | – | COC(=O)C[C@H](NC(=O)[C@H](C)NC(=O)[C@@H](NC(=O)OCc1ccccc1)C(C)C)C(=O)CF [Z-VAD-FMK, reference compound] (Cbz-Val-Ala-Asp(OMe)-CH2F) | apoptosis level induced by 4a upon exposure to the caspase inhibitor [6]: partial but significant reduction; apoptosis level induced by 4a upon exposure to the caspase inhibitor [7]: partial but significant reduction
7 | 0.011 | – | > 50 | uncompetitive | 24 | CCOC(=O)c1ccccc1Nc1cccc2ccccc12 [compound 3] | KSV (Stern-Volmer constant) [8]: 0.042 µM⁻¹; K′D/Ki ratio [8]: 8.6
8 | 0.016 | – | > 50 | uncompetitive | 43 | CCOC(=O)c1cccc(Nc2cccc3ccccc23)c1 [compound 4] | KSV (Stern-Volmer constant) [8]: 0.023 µM⁻¹; K′D/Ki ratio [8]: 5.9
